The record followed here is US12448374B2, “Inhibitors of SARM1” (Disarm Therapeutics, Inc., priority 2018, dated 2025).

One test has as its target T1, SARM1 SAM-TIR (Homo sapiens, UniProt Q6SZW1).
T1 construct: This assay makes use of a fragment of the SARM1 molecule encompassing the SAM and TIR domains; made in house; host or cells: NRK1-HEK293T cells (transient transfection; clarified sonicated lysate used without purification)
T1 sequence (Q6SZW1 409-724 limits assumed): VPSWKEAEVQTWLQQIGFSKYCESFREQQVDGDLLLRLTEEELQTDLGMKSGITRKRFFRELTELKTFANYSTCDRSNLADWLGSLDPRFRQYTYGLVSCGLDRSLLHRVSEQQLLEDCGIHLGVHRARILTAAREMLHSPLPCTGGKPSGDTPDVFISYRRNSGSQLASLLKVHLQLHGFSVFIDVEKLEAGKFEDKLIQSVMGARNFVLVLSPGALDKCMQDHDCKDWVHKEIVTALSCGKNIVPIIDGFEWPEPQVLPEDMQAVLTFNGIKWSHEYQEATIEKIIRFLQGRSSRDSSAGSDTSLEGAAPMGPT
In words: SAM-TIR SARM1 IC50 assay (NADase activity, NAD+ cleavage). The test is classed as biochemical. The following applies: SAM-TIR lysate 5 μg/mL, 2 h pre-incubation, 5 μM NAD+, RapidFire MS readout. An excerpt: This Example describes an assay of SAM-TIR NADase activity and use of this assay to measure the efficacy of compounds of Formula I to block SARM1 mediated NAD+ cleavage. This assay is optimized in such a way as to characterize the efficacy of the compounds in Formula I to inhibit SARM1 activity and to calculate an IC50 value for each compound. This assay makes use of a fragment of the SARM1 molecule encompassing the SAM and TIR domains.
NRK1-HEK293T cells refers to a cell line that has been stably e transfected with an FCIV expression vector that expresses human Nicotinamide Riboside Kinase 1 (NRK1), an enzyme that converts the NAD+ biosynthetic precursor nicotinamide riboside (NR) to NMN, the immediate precursor of NAD+. When provided with NR this cell line augments intracellular NAD+ levels and maintains cell viability, when expressing SARM1 SAM-TIR. FIG. 2 illustrates that a NRK1-HEK293T stable line with NR supplementation maintains higher NAD+ levels upon SARM1-TIR expression. Data was generated from three independent NAD+ measurements from three independent transfection experiments, and normalized to data from a non-transfected experiment run concurrently. Data are presented as mean±SEM; Error bars: SEM; ***P<0.001 two tailed student's t-test.
NRK1-HEK293T cells were seeded onto 150 cm^2 plates at 20×10^6 cells per plate. The next day, the cells were transfected with 15 μg FCIV-SST (SAM-TIR expression plasmid, SEQ ID NO: 1) using X-[…]™ 9 DNA Transfection Reagent (Roche product #06365787001).
The cultures were supplemented with 1 mM NR at time of transfection to minimize toxicity from SAM-TIR overexpression. Forty-eight hours after transfection, cells were harvested, pelleted by centrifugation at 1,000 rpm (Sorvall ST 16R centrifuge, Thermo Fisher), and washed once with cold PBS (0.01 M phosphate buffered saline NaCl 0.138 M; KCl 0.0027 M; pH 7.4). The cells were resuspended in PBS with protease inhibitors (cOmplete™ protease inhibitor cocktail, Roche product #11873580001) and cell lysates were prepared by sonication (Branson Sonifer 450, output=3, 20 episodes of stroke). The lysates were centrifuged (12,000×g for 10 min at 4° C.) to remove cell debris and the supernatants (containing SARM1 SAM-TIR protein) were stored at −80° C. for later use in the in vitro SARM1 SAM-TIR NADase assay (see below). Protein concentration was determined by the Bicinchoninic (BCA) method and used to normalize lysate concentrations.
The enzymatic assay was performed in a 384-well polypropylene plate in Dulbecco's PBS buffer in a final assay volume of 20 μL. SAM-TIR lysate with a final concentration of 5 μg/mL was pre-incubated with the respective compound at 1% DMSO final assay concentration over 2 h at room temperature. The reaction was initiated by addition of 5 μM final assay concentration of NAD+ as substrate. After a 2 hr room temperature incubation, the reaction was terminated with 40 μL of stop solution of 7.5% trichloroactetic acid in acetonitrile. The NAD+ and ADPR concentrations were analyzed by a RapidFire High Throughput Mass Spectrometry System (Agilent Technologies, Santa Clara, CA) using an API4000 triple quadrupole mass spectrometer (AB Sciex Framingham, MA).

Test [1] deals with mouse dorsal root ganglion (DRG) neurons. In words: Axon degeneration assay in mouse DRG drop culture. The test is classed as cell-based. The following applies: DRG neuron, protection of axon fragmentation, axonal transection or chemotoxic stimuli. How it is done: This Example illustrates an in vitro axon degeneration assay used to characterize compounds of Formula I. This assay is used to test the efficacy of the compounds of Formula I to prevent axonal degeneration in a mouse dorsal root ganglion (DRG) drop culture.
Mouse DRG Drop culture: Mouse dorsal root ganglion neurons (DRGs) were dissected out of E12.5 CD1 mice (50 ganglion per embryo) and incubated with 0.5% Trypsin solution containing 0.02% EDTA (Gibco) at 37° C. for 15 min. The cells were then triturated by gentle pipetting and washed 3 times with DRG growth medium (Neurobasal medium (Gibco) containing 2% B27 (Invitrogen), 100 ng/ml 2.5S NGF (Harland Bioproducts), 1 mM 5-fluoro-2′ deoxyuridine (Sigma), penicillin, and streptomycin). Cells were suspended in the DRG growth medium. DRG drop cultures were created by spotting 5000 cells/well into the center of each well of a 96-well tissue culture plate coated with poly-D-Lysine (0.1 mg/ml; Sigma) and laminin ([…]; Invitrogen). Cells were allowed to adhere to the plates in a humidified tissue culture incubator (5% CO2) for 15 min and then DRG growth medium was gently added ([…]).
Axon degeneration assay: Axonal degeneration was stimulated either by manual axonal transection using a scalpel blade, or chemotoxic stimuli. After an appropriate experimental time period, the DRG cultures were fixed in 1% PFA plus sucrose and kept in the fridge prior to imaging. Bright-field images of DRG axons and cell bodies were collected using the 20× water immersion lens of a Phenix automated confocal microscope (PerkinElmer) and quantitation of axonal performed using in-house developed scripts (Acapella, PerkinElmer).

The structures appear in SMILES notation.

What is called IC50 is the concentration that inhibits the measured activity by half. Read a low IC50 as greater potency in that assay.

Compound `Brc1cccc2nncn12` [Example 3] displayed an IC50 against SARM1 SAM-TIR greater than 50 µM.

As for `Ic1c[nH]c2cnccc12` [Example 4], the IC50 (in test [1]; on SARM1 SAM-TIR) was less than 10 µM throughout.

Take `Brc1cccc2[nH]ncc12` [Example 5]: the IC50 against SARM1 SAM-TIR lay within 10 to 30 µM.

As to `Clc1nccc2c(Br)c[nH]c12` [Example 6], the IC50 against SARM1 SAM-TIR is less than 10 µM.

`Brc1c[nH]c2cnccc12` [Example 7]: the IC50 (in test [1]; against SARM1 SAM-TIR) was less than 10 µM in each case.

As to `Clc1c[nH]c2cnccc12` [Example 9], on SARM1 SAM-TIR, the IC50 was less than 10 µM.

`COCCCn1cc(Br)c2ccncc21` [Example 10] gave an IC50 against SARM1 SAM-TIR greater than 50 µM.

As for `NC(=O)Cn1cc(Br)c2ccncc21` [Example 11], the IC50 against SARM1 SAM-TIR is greater than 50 µM.

For `COCCn1cc(Br)c2ccncc21` [Example 12], on SARM1 SAM-TIR, the IC50 was in the range of 30 to 50 µM.

As to `CC(C)n1cc(Br)c2ccncc21` [Example 13], the IC50 against SARM1 SAM-TIR was 30 to 50 µM.

In turn, `CCn1cc(I)c2ccncc21` [Example 14] returned an IC50 against SARM1 SAM-TIR of less than 10 µM.

On SARM1 SAM-TIR, `Cn1cc(I)c2ccncc21` [Example 15] yielded an IC50 of less than 10 µM.

In the case of `Cn1cc(Br)c2ccncc21` [Example 16], the IC50 against SARM1 SAM-TIR is less than 10 µM.

Compound `Oc1nnc2cnccn12` [Example 27] registered an IC50 against SARM1 SAM-TIR greater than 50 µM.

In turn, `Cn1cnc2cnccc21` [Example 28] displayed an IC50 on SARM1 SAM-TIR of less than 10 µM.

`Cc1ccc2nc[nH]c2c1Br` [Example 29] registered an IC50 against SARM1 SAM-TIR of 30 to 50 µM.

Turning to `Brc1csc2cnccc12` [Example 30], the results for the IC50 (in test [1]; against SARM1 SAM-TIR) were 10 to 30 µM and less than 10 µM, respectively.

In turn, `Brc1n[nH]c2cnccc12` [Example 31] yielded an IC50 at SARM1 SAM-TIR of 10 to 30 µM.

For the compound `Brc1cncc2[nH]ncc12` [Example 32], the IC50 against SARM1 SAM-TIR was less than 10 µM.

`c1cc2ccsc2cn1` [Example 33]: the IC50 at SARM1 SAM-TIR is less than 10 µM.

Take `N#Cc1cc2ccncc2[nH]1` [Example 37]: on SARM1 SAM-TIR, the IC50 is greater than 50 µM.

`CCOC(=O)c1[nH]c2cnccc2c1Br` [Example 38]: the IC50 against SARM1 SAM-TIR was greater than 50 µM.

With `O=S1(=O)C=C(Br)c2ccncc21` [Example 40], at SARM1 SAM-TIR, the IC50 is 30 to 50 µM.

`Ic1csc2cnncc12` [Example 41]: on SARM1 SAM-TIR, the IC50 was less than 10 µM.

As to `Ic1c[nH]c2nnccc12` [Example 42], the IC50 on SARM1 SAM-TIR was greater than 50 µM.

Regarding `Brc1csc2cnncc12` [Example 43], the IC50 against SARM1 SAM-TIR was less than 10 µM.

`Brc1c[nH]c2nnccc12` [Example 44] came in with an IC50 against SARM1 SAM-TIR greater than 50 µM.
